This passage reports Inhibition results from ChEMBL document CHEMBL1139957, “Synthesis of furanosyl alpha-C-glycosides derived from 4-chloro-4-deoxy-alpha-D-galactose and their cytotoxic activities” (2007).

In general, Inhibition refers to the relative decrease from the control value, in per cent. Read a low Inhibition as a response near the control.

Holding throughout (assay type): functional
Experiment [1] deals with A549. Description: Cytotoxicity against human A549 cells at 50 umol/mL after 48 hrs by MTT assay.
The test system of experiment [2] is A549. Description: Cytotoxicity against human A549 cells at 100 umol/mL after 48 hrs by MTT assay.
The subject of experiment [3] is A549. Nature of the experiment: Cytotoxicity against human A549 cells at 200 umol/mL after 48 hrs by MTT assay. In general terms: Tetrazolium dyes change colour on reduction, which living cells bring about.

For `CCOC(=O)c1cc([C@H]2OC[C@@H](OS(C)(=O)=O)[C@@H]2Cl)oc1C`, the Inhibition in experiment [1] is reported as 15.3%; in experiment [2], 18.55%; in experiment [3], 27.87%.
Taken in the same sequence, the figures for `CC(=O)c1cc([C@H]2OC[C@@H](N=[N+]=[N-])[C@@H]2Cl)oc1C` were 32.73%, 48.6% and 56.7%.
Take `CCOC(=O)c1cc([C@H]2OC[C@@H](O)[C@@H]2Cl)oc1C`: the results for the Inhibition in experiment [1], in experiment [2] and in experiment [3] were 15.15%, 18.51% and 25.72%, respectively.
For `CCOC(=O)c1cc([C@H]2OC[C@@H](N=[N+]=[N-])[C@@H]2Cl)oc1C` the same measures were 18.28%, 19.79% and 36.89%.
For `COC(=O)c1cc([C@H]2OCC(=O)[C@@H]2Cl)oc1C` the same measures were 21.49%, 28.55% and 37.67%.
Taken in the same sequence, the figures for `CC(=O)c1cc(C2OC[C@@H](O)[C@@H]2O)oc1C` (stereo partly drawn) were 23.14%, 27.4% and 33.09%.
Turning to `CC(=O)c1cc([C@H]2OC[C@@H](O)[C@@H]2Cl)oc1C`, the Inhibition in experiment [1] was determined as 24.36%; in experiment [2], 31.92%; in experiment [3], 39.36%.
On to `CCOC(=O)c1cc([C@H]2OCC(=O)[C@@H]2Cl)oc1C`, for which the Inhibition in experiment [1] amounted to 28.81%; in experiment [2] it was 31.36%; in experiment [3] it was 45.68%.
With `CC(=O)c1cc([C@H]2OC[C@@H](N)[C@@H]2Cl)oc1C`, the Inhibition is 13.04% in experiment [1], 24.86% in experiment [2] and 34.57% in experiment [3].
As to `CCOC(=O)c1cc([C@H]2OC[C@@H](N)[C@@H]2Cl)oc1C`, the Inhibition is 10.09% in experiment [1], 16.29% in experiment [2] and 24.82% in experiment [3].
Taken in the same sequence, the figures for `CC(=O)c1cc([C@H]2OC[C@@H](OS(C)(=O)=O)[C@@H]2Cl)oc1C` were 26.42%, 35.65% and 46.8%.
